Test results published in article PMC6600370 (International Journal of Molecular Sciences, 2019).
Each block holds one molecule with its values, some of them ahead of it.

What was measured:
[1] = molecular target: T1, Xanthine oxidase (from bovine milk) (Bos taurus, UniProt P80457); experiment: XO assay with 6-MP substrate (6-thiouric acid formation, HPLC); type: biochemical; conditions: for Effect on 6-TU formation at 20 μM: 20 μM test compound; for Effect on 6-TU formation at 3 μM: 3 μM test compound; for IC50 (6-MP)/IC50 (Xanthine): ratio of IC50 values, both substrates 5 μM; for Effect on 6-TU formation at 0.25 μM: 0.25 μM test compound
T1 construct: Xanthine oxidase (from bovine milk); purchased Sigma-Aldrich; host or cells: bovine milk (natural source)
T1 sequence (P80457 whole entry): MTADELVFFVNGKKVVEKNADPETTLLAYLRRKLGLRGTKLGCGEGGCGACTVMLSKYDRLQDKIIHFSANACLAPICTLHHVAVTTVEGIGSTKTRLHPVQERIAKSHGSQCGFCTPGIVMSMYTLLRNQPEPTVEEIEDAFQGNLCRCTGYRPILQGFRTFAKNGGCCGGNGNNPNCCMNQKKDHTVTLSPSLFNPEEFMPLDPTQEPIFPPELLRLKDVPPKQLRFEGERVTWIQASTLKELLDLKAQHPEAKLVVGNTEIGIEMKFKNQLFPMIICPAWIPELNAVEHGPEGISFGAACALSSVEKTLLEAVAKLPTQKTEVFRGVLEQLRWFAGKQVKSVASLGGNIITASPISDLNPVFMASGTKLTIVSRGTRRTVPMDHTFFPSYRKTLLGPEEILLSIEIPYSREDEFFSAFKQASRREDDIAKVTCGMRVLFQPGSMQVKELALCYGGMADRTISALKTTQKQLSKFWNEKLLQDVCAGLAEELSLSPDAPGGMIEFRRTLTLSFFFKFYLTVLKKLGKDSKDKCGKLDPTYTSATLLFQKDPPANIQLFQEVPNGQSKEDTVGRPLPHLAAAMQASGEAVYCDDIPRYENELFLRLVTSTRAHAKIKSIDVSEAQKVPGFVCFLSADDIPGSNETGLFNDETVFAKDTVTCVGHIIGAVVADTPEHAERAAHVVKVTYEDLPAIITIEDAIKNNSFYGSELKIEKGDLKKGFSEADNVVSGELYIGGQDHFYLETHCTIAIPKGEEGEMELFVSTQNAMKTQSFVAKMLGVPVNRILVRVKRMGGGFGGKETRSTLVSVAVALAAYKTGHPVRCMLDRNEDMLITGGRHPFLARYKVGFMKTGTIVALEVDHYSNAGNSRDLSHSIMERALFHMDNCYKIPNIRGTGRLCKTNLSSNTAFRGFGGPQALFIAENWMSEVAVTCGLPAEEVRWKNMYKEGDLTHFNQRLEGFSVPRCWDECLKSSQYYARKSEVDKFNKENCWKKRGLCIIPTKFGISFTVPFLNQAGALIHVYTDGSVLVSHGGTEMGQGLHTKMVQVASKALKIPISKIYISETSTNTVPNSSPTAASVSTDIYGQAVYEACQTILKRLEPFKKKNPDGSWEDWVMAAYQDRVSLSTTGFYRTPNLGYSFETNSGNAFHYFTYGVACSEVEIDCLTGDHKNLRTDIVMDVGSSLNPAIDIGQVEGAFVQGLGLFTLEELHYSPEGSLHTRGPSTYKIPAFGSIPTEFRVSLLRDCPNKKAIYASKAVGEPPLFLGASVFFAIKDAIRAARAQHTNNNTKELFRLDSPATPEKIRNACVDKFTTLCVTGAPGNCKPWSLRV
Experimental: The incubations were carried out in 0.05 M sodium phosphate buffer (pH 7.5; final volume of incubates: 500 μL). The reaction started with the addition of the enzyme, and was stopped with 30 μL of 6 M HClO4 20, 40, or 60 min later. Thereafter, the samples were vortexed and centrifuged at 14,000× g for 5 min at room temperature. A 300-μL aliquot of the supernatant was carefully removed, after which 36 μL of 1 M KOH was added to these aliquots. Samples were cooled to 4 °C to enhance the precipitation of the formed KClO4, and centrifuged at 14,000× g for 5 min at 4 °C. The supernatants were carefully removed and the substrate together with metabolites were analyzed by HPLC (see details in Section 4.5). 6-MP is oxidized to 6-TX followed by 6-TU in the two-step reaction.
Quantitation of 6-MP, 6-TX, and 6-TU was performed by the previously described method with minor modifications.

[2] = molecular target: T1, Xanthine oxidase (from bovine milk); experiment: XO assay with xanthine substrate (uric acid formation, HPLC); type: biochemical; conditions: for Effect on uric acid formation at 20 μM: 20 μM test compound (four-fold vs. substrate); for Effect on urate formation at 10 μM: 10 μM flavonoid, 15 min preincubation, 8 min
Experimental: Xanthine (5 μM) was incubated with 0.0012 U/mL XO in the absence or presence of inhibitors (0–20 μM). Incubations were started with the addition of the enzyme (final volume of incubates: 500 μL), and stopped after 4, 8, and 12 min with 30 μL of 6 M HClO4. Thereafter, the samples were vortexed, after which 97 μL of 1 M KOH was added, then samples were cooled to 4 °C and centrifuged. Other experimental conditions were the same as described in Section 4.2. Xanthine and uric acid were quantified by HPLC (see details in Section 4.5).
(§1) Quantification of xanthine, hypoxanthine, and uric acid was performed by the previously described method with minor modifications.

[3] = cited from earlier work; for Therapeutic peak plasma concentrations: single 200 mg oral dose of APU
[4] = molecular target: T1, Xanthine oxidase (from bovine milk); experiment: XO assay with hypoxanthine substrate (xanthine + uric acid formation, HPLC); type: biochemical
Experimental: The experiments were started with the addition of the enzyme and stopped after 4 min with 30 μL of 6 M HClO4. Other experimental conditions were the same as described in Section 4.3. XO-catalyzed oxidation of hypoxanthine results in the formation of xanthine and uric acid in two consecutive steps.
as §1

[5] = test system: XO; conditions: cited from earlier work
[6] = cited from earlier work
[7] = cited from earlier work; remark: listed apart in the source
[8] = cited from earlier work; remark: listed apart in the source
[9] = 5 μM 6-MP, 40 min incubation, 6-TU formation, read-out: 6-MP Oxidation IC50
[10] = 5 μM xanthine, 8 min incubation, uric acid formation, read-out: Xanthine Oxidation IC50

SMILES: COc1ccc(C(=O)O)c(O)c1 [2H4MBA, 4-Methoxysalicylic acid]
Effect on 6-TU formation at 20 μM ([1]; 5 μM 6-MP): significant decreases
Effect on uric acid formation at 20 μM ([2]; 5 μM xanthine): inhibited of uric acid formation significantly

SMILES: O=C(O)Cc1ccccc1O [2HPAA, 2-Hydroxyphenylacetic acid]
Effect on 6-TU formation at 20 μM ([1]; 5 μM 6-MP): significant decreases

SMILES: O=C(O)/C=C/c1cccc(O)c1 [3CA, 3-Coumaric acid]
Effect on 6-TU formation at 20 μM ([1]; 5 μM 6-MP): significant decreases

SMILES: COc1ccc(CC(=O)O)cc1O [3H4MPAA, 3-Hydroxy-4-methoxyphenylacetic acid]
Effect on 6-TU formation at 20 μM ([1]; 5 μM 6-MP): significant decreases

SMILES: O=C(O)CCc1ccccc1 [3PPA, 3-Phenylpropionic acid]
Effect on 6-TU formation at 20 μM ([1]; 5 μM 6-MP): significant decreases

SMILES: O=C(O)c1ccc(O)cc1 [4HBA, 4-Hydroxybenzoic acid]
Effect on 6-TU formation at 20 μM ([1]; 5 μM 6-MP): significant decreases

SMILES: Oc1ncnc2[nH]ncc12 [APU, Allopurinol, reference compound]
Effect on 6-TU formation at 3 μM ([1]; 5 μM 6-MP): only a slight effect
Therapeutic peak plasma concentrations [3]: 35 to 40 µM

SMILES: O=C(O)c1ccccc1 [BA, Benzoic acid]
Effect on 6-TU formation at 20 μM ([1]; 5 μM 6-MP): significant decreases

SMILES: COc1cc(-c2oc3cc(O)cc(O)c3c(=O)c2O)ccc1O [IR, Isorhamnetin]
IC50 [1]: 0.6 µM
Effect on 6-TU formation at 3 μM ([1]; 5 μM 6-MP): almost completely inhibited
IC50 (6-MP)/IC50 (Xanthine) [1]: 0.86
IC50 [2]: 0.7 µM
Effect on urate formation at 10 μM ([2]; 5 μM xanthine): almost completely abolished

SMILES: O=c1[nH]c(=O)c2c[nH]nc2[nH]1 [Oxipurinol, oxipurinol, reference compound]
IC50 [1, 9]: 10 µM
Therapeutic peak plasma concentrations [3]: 35 to 40 µM
IC50 [4]: > 3 µM
IC50 [2, 10]: 4.5 µM

SMILES: O=c1c(O)c(-c2ccc(O)c(O)c2)oc2cc(O)cc(O)c12 [Q, Quercetin]
Effect on 6-TU formation at 0.25 μM ([1]; 5 μM 6-MP): only weak inhibitory action
Effect on 6-TU formation at 3 μM ([1]; 5 μM 6-MP): almost completely inhibited
Peak plasma concentrations of total Q ([3]; repeated daily oral administration of 1000 mg Q): low micromolar range
Effect on urate formation at 10 μM ([2]; 5 μM xanthine): almost completely abolished
Serum uric acid levels, human ([6]; 1000 or 2000 mg/day): does not influence the serum uric acid levels
Serum urate, human ([6]; four-week treatment, 500 mg/day): minimal reduction in serum urate
Serum urate levels in hyperuricemic mice ([7]; 100 mg/kg, hyperuricemic mice): decreased the serum urate levels
Serum urate levels in normal or hyperuricemic mice ([7]; 400 mg/kg orally administered): failed to decrease the serum urate levels
Oral bioavailability [8]: low

SMILES: O=c1c(OS(=O)(=O)O)c(-c2ccc(O)c(O)c2)oc2cc(O)cc(O)c12 [Q-3-sulfate]
Inhibition of XO-catalyzed xanthine oxidation [5]: inhibited XO only at very high concentrations

SMILES: O=C(O)[C@H]1O[C@@H](Oc2cc(-c3oc4cc(O)cc(O)c4c(=O)c3O)ccc2O)[C@H](O)[C@@H](O)[C@@H]1O [Q-3′-glucuronide]
Inhibition of XO-catalyzed xanthine oxidation [5]: similarly strong inhibitors of xanthine oxidation as Q

SMILES: O=C(O)[C@H]1O[C@@H](Oc2ccc(-c3oc4cc(O)cc(O)c4c(=O)c3O)cc2O)[C@H](O)[C@@H](O)[C@@H]1O [Q-4′-glucuronide]
Inhibition of XO-catalyzed xanthine oxidation [5]: similarly strong inhibitors of xanthine oxidation as Q

SMILES: O=C(O)[C@H]1O[C@@H](Oc2cc(O)c3c(=O)c(O)c(-c4ccc(O)c(O)c4)oc3c2)[C@H](O)[C@@H](O)[C@@H]1O [Q-7-glucuronide]
Inhibition of XO-catalyzed xanthine oxidation [5]: only weak inhibitors

More lines, main results first:

Effect on 6-TU formation at 20 μM ([1]; 5 μM 6-MP): significant decreases
SMILES: O=C(O)Cc1ccc(CO)cc1 [4HMPAA, 4-(Hydroxymethyl)phenylacetic acid]

Effect on 6-TU formation at 20 μM ([1]; 5 μM 6-MP): significant decreases
SMILES: O=C(O)Cc1ccc(O)cc1 [4HPAA, 4-hydroxyphenylacetic acid]

Effect on 6-TU formation at 20 μM ([1]; 5 μM 6-MP): significant decreases
SMILES: CC(=O)c1ccc(O)cc1O [24DHAP, 2,4-Dihydroxyacetophenon]

Effect on 6-TU formation at 20 μM ([1]; 5 μM 6-MP): significant decreases
SMILES: O=C(O)c1ccc(O)cc1O [24DHBA, 2,4-Dihydroxybenzoic acid]

Effect on 6-TU formation at 20 μM ([1]; 5 μM 6-MP): significant decreases
SMILES: O=C(O)CCc1cccc(O)c1 [33HPPA, 3-(3-Hydroxyphenyl)propionic acid]

Effect on 6-TU formation at 20 μM ([1]; 5 μM 6-MP): significant decreases
SMILES: O=C(O)CCc1ccc(O)cc1 [34HPPA, 3-(4-Hydroxyphenyl)propionic acid]

Effect on 6-TU formation at 20 μM ([1]; 5 μM 6-MP): significant decreases
SMILES: O=C(O)CCc1ccc(O)cc1O [324DHPPA, 3-(2,4-Dihydroxyphenyl)propionic acid]

Effect on 6-TU formation at 20 μM ([1]; 5 μM 6-MP): significant decreases
SMILES: O=C(O)CNC(=O)c1ccccc1 [HIPA, Hippuric acid]

IC50 [1, 9]: > 20 µM
Effect on 6-TU formation at 20 μM ([1]; 5 μM 6-MP): did not inhibit
IC50 [2, 10]: > 20 µM
Effect on uric acid formation at 20 μM ([2]; 5 μM xanthine): did not inhibit
SMILES: COc1cc(-c2oc3cc(O)cc(O)c3c(=O)c2OC2OC(C(=O)O)C(O)C(O)C2O)ccc1O (stereo not drawn) [I3G, Isorhamnetin-3-glucuronide]

IC50 [1, 9]: 10.1 µM
Effect on 6-TU formation at 20 μM ([1]; 5 μM 6-MP): significant decreases
inhibition at 20 µM ([1]; 20 μM, 5 μM 6-MP, read-out: Inhibitory effect on 6-MP oxidation at 20 μM): > 50%
IC50 (6-MP)/IC50 (Xanthine) [1]: 5.61
IC50 [2, 10]: 1.8 µM
inhibition at 20 µM ([2]; 20 μM, 5 μM xanthine, read-out: Inhibitory effect on xanthine oxidation at 20 μM): > 50%
SMILES: Oc1cccc(O)c1O [PYR, Pyrogallol]
Effect on uric acid formation at 20 μM ([2]; 5 μM xanthine): inhibited of uric acid formation significantly

IC50 [1, 9]: > 20 µM
Effect on 6-TU formation at 20 μM ([1]; 5 μM 6-MP): did not inhibit
IC50 [2, 10]: > 20 µM
Effect on uric acid formation at 20 μM ([2]; 5 μM xanthine): did not inhibit
SMILES: O=C(O)C1OC(Oc2c(-c3ccc(O)c(O)c3)oc3cc(O)cc(O)c3c2=O)C(O)C(O)C1O (stereo not drawn) [Q3G, Quercetin-3-glucuronide]
Inhibition of XO-catalyzed xanthine oxidation [5]: only weak inhibitors

Effect on 6-TU formation at 0.25 μM ([1]; 5 μM 6-MP): significantly decreased
Effect on 6-TU formation at 3 μM ([1]; 5 μM 6-MP): almost completely inhibited
IC50 [1, 9]: 0.5 µM
IC50 (6-MP)/IC50 (Xanthine) [1]: 1.25
IC50 ([4]; 5 μM hypoxanthine, 4 min incubation, xanthine + uric acid formation, read-out: Hypoxanthine oxidation IC50): 0.21 µM
IC50 [2, 10]: 0.4 µM
Effect on urate formation at 10 μM ([2]; 5 μM xanthine): almost completely abolished
SMILES: O=c1c(O)c(-c2ccc(O)c(OS(=O)(=O)O)c2)oc2cc(O)cc(O)c12 [Q3′S, Quercetin-3′-sulfate]

Effect on 6-TU formation at 0.25 μM ([1]; 5 μM 6-MP): significantly decreased
Effect on 6-TU formation at 3 μM ([1]; 5 μM 6-MP): almost completely inhibited
IC50 [1, 9]: 0.2 µM
IC50 (6-MP)/IC50 (Xanthine) [1]: 1.00
IC50 [2, 10]: 0.2 µM
Effect on urate formation at 10 μM ([2]; 5 μM xanthine): almost completely abolished
SMILES: COc1ccc(-c2oc3cc(O)cc(O)c3c(=O)c2O)cc1O [TAM, Tamarixetin]
